Measurements from BindingDB's records for doi:10.7270/Q2DF6PMF (Nmmlsc, 2007).

Biological target: T1, N-formyl peptide receptor 2 (Homo sapiens, UniProt P25090)
T1 sequence (P25090 whole entry): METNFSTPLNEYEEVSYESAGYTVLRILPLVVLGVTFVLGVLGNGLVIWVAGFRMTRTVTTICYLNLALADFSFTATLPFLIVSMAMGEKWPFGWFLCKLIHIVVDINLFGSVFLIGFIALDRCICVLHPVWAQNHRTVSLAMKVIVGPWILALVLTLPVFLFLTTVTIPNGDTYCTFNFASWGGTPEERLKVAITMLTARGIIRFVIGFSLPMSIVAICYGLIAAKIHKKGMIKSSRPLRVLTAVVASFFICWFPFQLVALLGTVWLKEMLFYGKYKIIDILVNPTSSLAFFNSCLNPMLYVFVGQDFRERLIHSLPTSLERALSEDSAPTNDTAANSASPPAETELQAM
Assay: FPRL1 binding inhibitor potency, dose response, cell-based, FPR counter-screen, fluorescent ligand (AID 520)

SMILES | IC50 | Ki
COCCCN1C(=O)C(=O)C(C(=O)c2ccc3c(c2)CC(C)O3)C1c1cccnc1 (centres undefined) [(4E)-1-(3-methoxypropyl)-4-[(2-methyl-2,3-dihydro-1-benzofuran-5-yl)-oxidanyl-methylidene]-5-pyridin-3-yl-pyrrolidine-2,3-dione] | > 66.7 µM | > 40.3 µM
Cc1ccc(C)c(C(=O)C2C(=O)C(=O)N(CCCn3ccnc3)C2c2ccncc2)c1 (centres undefined) [(4E)-4-[(2,5-dimethylphenyl)-hydroxy-methylene]-1-(3-imidazol-1-ylpropyl)-5-(4-pyridyl)pyrrolidine-2,3-quinone] | > 66.7 µM | > 40.3 µM
COc1cccc(C2C(C(=O)c3ccc(OC)c(OC)c3)C(=O)C(=O)N2c2cc(C)on2)c1 (centres undefined) [(4E)-4-[(3,4-dimethoxyphenyl)-hydroxy-methylene]-5-(3-methoxyphenyl)-1-(5-methylisoxazol-3-yl)pyrrolidine-2,3-quinone] | > 66.7 µM | > 40.3 µM
COCCCN1C(=O)C(=O)C(C(=O)c2ccc(OC)cc2C)C1c1cccnc1 (centres undefined) [(4E)-4-[(4-methoxy-2-methyl-phenyl)-oxidanyl-methylidene]-1-(3-methoxypropyl)-5-pyridin-3-yl-pyrrolidine-2,3-dione] | > 66.7 µM | > 40.3 µM
COc1ccc(C(=O)C2C(=O)C(=O)N(Cc3ccco3)C2c2ccc(OC)cc2OC)cc1 (centres undefined) [(4E)-5-(2,4-dimethoxyphenyl)-1-(2-furanylmethyl)-4-[hydroxy-(4-methoxyphenyl)methylidene]pyrrolidine-2,3-dione] | > 66.7 µM | > 40.3 µM
CC1Cc2cc(C(=O)C3C(=O)C(=O)N(CCN4CCOCC4)C3c3ccccc3F)ccc2O1 (centres undefined) [(4E)-5-(2-fluorophenyl)-4-[(2-methyl-2,3-dihydro-1-benzofuran-5-yl)-oxidanyl-methylidene]-1-(2-morpholin-4-ylethyl)pyrrolidine-2,3-dione] | > 66.7 µM | > 40.3 µM
Cc1cc(N2C(=O)C(=O)C(C(=O)c3ccc(F)cc3)C2c2cccc(Br)c2)no1 (centres undefined) [(4E)-5-(3-bromophenyl)-4-[(4-fluorophenyl)-hydroxy-methylene]-1-(5-methylisoxazol-3-yl)pyrrolidine-2,3-quinone] | > 66.7 µM | > 40.3 µM
Cc1ccc(C(=O)C2C(=O)C(=O)N(CC(C)O)C2c2ccc(N(C)C)cc2)cc1 (centres undefined) [(4E)-5-[4-(dimethylamino)phenyl]-1-(2-hydroxypropyl)-4-[hydroxy(p-tolyl)methylene]pyrrolidine-2,3-quinone] | > 66.7 µM | > 40.3 µM
CCOc1cccc(C(=O)C2C(=O)C(=O)N(Cc3ccco3)C2c2ccncc2)c1 (centres undefined) [(4Z)-1-(2-furfuryl)-4-[hydroxy(m-phenetyl)methylene]-5-(4-pyridyl)pyrrolidine-2,3-quinone] | > 66.7 µM | > 40.3 µM
COc1ccccc1C1C(C(=O)c2ccccc2)C(=O)C(=O)N1CCO (centres undefined) [(4Z)-1-(2-hydroxyethyl)-4-[hydroxy(phenyl)methylene]-5-(2-methoxyphenyl)pyrrolidine-2,3-quinone] | > 66.7 µM | > 40.3 µM
CCOc1ccc(C(=O)C2C(=O)C(=O)N(c3nc(C)c(C)s3)C2c2ccco2)cc1 (centres undefined) [(4Z)-1-(4,5-dimethyl-1,3-thiazol-2-yl)-4-[(4-ethoxyphenyl)-hydroxymethylidene]-5-(furan-2-yl)pyrrolidine-2,3-dione] | > 66.7 µM | > 40.3 µM
COc1ccc(C(=O)C2C(=O)C(=O)N(c3nc(C)c(C)s3)C2c2ccco2)cc1 (centres undefined) [(4Z)-1-(4,5-dimethyl-1,3-thiazol-2-yl)-5-(furan-2-yl)-4-[(4-methoxyphenyl)-oxidanyl-methylidene]pyrrolidine-2,3-dione] | > 66.7 µM | > 40.3 µM
CCOc1cccc(C(=O)C2C(=O)C(=O)N(Cc3cccnc3)C2c2ccco2)c1 (centres undefined) [(4Z)-4-[(3-ethoxyphenyl)-hydroxymethylidene]-5-(2-furanyl)-1-(3-pyridinylmethyl)pyrrolidine-2,3-dione] | > 66.7 µM | > 40.3 µM
Cc1ccc(C2C(C(=O)c3ccc(Br)cc3)C(=O)C(=O)N2Cc2ccco2)o1 (centres undefined) [(4Z)-4-[(4-bromophenyl)-hydroxy-methylene]-1-(2-furfuryl)-5-(5-methyl-2-furyl)pyrrolidine-2,3-quinone] | > 66.7 µM | > 40.3 µM
Cc1ccc(C2C(C(=O)c3ccc(Cl)cc3)C(=O)C(=O)N2CC2CCCO2)o1 (centres undefined) [(4Z)-4-[(4-chlorophenyl)-hydroxy-methylene]-5-(5-methyl-2-furyl)-1-(tetrahydrofurfuryl)pyrrolidine-2,3-quinone] | > 66.7 µM | > 40.3 µM
CCOc1ccc(C(=O)C2C(=O)C(=O)N(CC3CCCO3)C2c2ccc(C)o2)cc1 (centres undefined) [(4Z)-4-[(4-ethoxyphenyl)-hydroxymethylidene]-5-(5-methyl-2-furanyl)-1-(2-oxolanylmethyl)pyrrolidine-2,3-dione] | > 66.7 µM | > 40.3 µM
COc1ccc(C(=O)C2C(=O)C(=O)N(CCN3CCOCC3)C2c2ccc(C)cc2)cc1 (centres undefined) [(4Z)-4-[(4-methoxyphenyl)-oxidanyl-methylidene]-5-(4-methylphenyl)-1-(2-morpholin-4-ylethyl)pyrrolidine-2,3-dione] | > 66.7 µM | > 40.3 µM
Cc1ccc(C(=O)C2C(=O)C(=O)N(CCN3CCOCC3)C2c2cccnc2)cc1 (centres undefined) [(4Z)-4-[(4-methylphenyl)-oxidanyl-methylidene]-1-(2-morpholin-4-ylethyl)-5-pyridin-3-yl-pyrrolidine-2,3-dione] | > 66.7 µM | > 40.3 µM
COc1ccc(OC)c(C2C(C(=O)c3ccccc3)C(=O)C(=O)N2Cc2ccco2)c1 (centres undefined) [(4Z)-5-(2,5-dimethoxyphenyl)-1-(2-furanylmethyl)-4-[hydroxy(phenyl)methylidene]pyrrolidine-2,3-dione] | > 66.7 µM | > 40.3 µM
COc1cccc(C(=O)C2C(=O)C(=O)N(Cc3cccnc3)C2c2ccco2)c1 (centres undefined) [(4Z)-5-(2-furanyl)-4-[hydroxy-(3-methoxyphenyl)methylidene]-1-(3-pyridinylmethyl)pyrrolidine-2,3-dione] | > 66.7 µM | > 40.3 µM
CCOC(=O)c1c(C)[nH]c(C=Nc2ccccc2)c1O [(5Z)-5-(anilinomethylidene)-2-methyl-4-oxo-1H-pyrrole-3-carboxylic acid ethyl ester] | > 66.7 µM | 
C=C(c1ccc(Br)cc1)c1sc(N2CCCC2)nc1O [(5Z)-5-[1-(4-bromophenyl)ethylidene]-2-(1-pyrrolidinyl)-4-thiazolone] | > 66.7 µM | > 40.3 µM

Now from value to molecule:

IC50 | Ki | SMILES
> 66.7 µM | > 40.3 µM | Cc1nc2c(C)cccn2c1C(=O)C1C(=O)C(=O)N(CCN2CCOCC2)C1c1cccs1 (centres undefined) [(4E)-4-[(2,8-dimethyl-3-imidazo[1,2-a]pyridinyl)-hydroxymethylidene]-1-[2-(4-morpholinyl)ethyl]-5-thiophen-2-ylpyrrolidine-2,3-dione]
> 66.7 µM | > 40.3 µM | COCCCN1C(=O)C(=O)C(C(=O)c2ccccc2)C1c1ccc2c(c1)OCO2 (centres undefined) [(4E)-5-(1,3-benzodioxol-5-yl)-1-(3-methoxypropyl)-4-[oxidanyl(phenyl)methylidene]pyrrolidine-2,3-dione]
> 66.7 µM | > 40.3 µM | Cc1ccc(C(=O)C2C(=O)C(=O)N(c3cc(C)on3)C2c2cccc(Br)c2)cc1 (centres undefined) [(4E)-5-(3-bromophenyl)-1-(5-methyl-1,2-oxazol-3-yl)-4-[(4-methylphenyl)-oxidanyl-methylidene]pyrrolidine-2,3-dione]
> 66.7 µM | > 40.3 µM | CCOc1cccc(C(=O)C2C(=O)C(=O)N(CCOC)C2c2ccc(C)o2)c1 (centres undefined) [(4Z)-4-[(3-ethoxyphenyl)-hydroxymethylidene]-1-(2-methoxyethyl)-5-(5-methyl-2-furanyl)pyrrolidine-2,3-dione]
> 66.7 µM | > 40.3 µM | CCOc1ccc(C(=O)C2C(=O)C(=O)N(CC3CCCO3)C2c2ccco2)cc1 (centres undefined) [(4Z)-4-[(4-ethoxyphenyl)-hydroxymethylidene]-5-(2-furanyl)-1-(2-oxolanylmethyl)pyrrolidine-2,3-dione]
> 66.7 µM | > 40.3 µM | COc1ccccc1C1C(C(=O)c2ccccc2)C(=O)C(=O)N1CC(C)O (centres undefined) [(4Z)-4-[hydroxy(phenyl)methylene]-1-(2-hydroxypropyl)-5-(2-methoxyphenyl)pyrrolidine-2,3-quinone]
> 66.7 µM | > 40.3 µM | COc1ccccc1C1C(C(=O)c2ccccc2)C(=O)C(=O)N1CC(C)C (centres undefined) [(4Z)-4-[hydroxy(phenyl)methylene]-1-isobutyl-5-(2-methoxyphenyl)pyrrolidine-2,3-quinone]
> 66.7 µM | > 40.3 µM | Cc1ccc(C2C(C(=O)c3cnn(-c4ccccc4)c3C)C(=O)C(=O)N2CCN2CCOCC2)o1 (centres undefined) [(4Z)-4-[hydroxy-(5-methyl-1-phenyl-4-pyrazolyl)methylidene]-5-(5-methyl-2-furanyl)-1-[2-(4-morpholinyl)ethyl]pyrrolidine-2,3-dione]
> 66.7 µM | > 40.3 µM | COc1ccc(C2C(C(=O)c3ccccc3)C(=O)C(=O)N2CC(C)O)c(OC)c1 (centres undefined) [(4Z)-5-(2,4-dimethoxyphenyl)-4-[hydroxy(phenyl)methylene]-1-(2-hydroxypropyl)pyrrolidine-2,3-quinone]
> 66.7 µM |  | CCN1C(=O)/C(=C2\SC(=S)N(CCCOC)C2=O)c2ccccc21 [(5Z)-5-(1-ethyl-2-keto-indolin-3-ylidene)-3-(3-methoxypropyl)-2-thioxo-thiazolidin-4-one]
> 66.7 µM | > 40.3 µM | O=C1Nc2ccccc2/C1=C1/SC(=S)N(CC2CCCO2)C1=O (centres undefined) [(5Z)-5-(2-ketoindolin-3-ylidene)-3-(tetrahydrofurfuryl)-2-thioxo-thiazolidin-4-one]
